Reference: US6500817B1, “Thiazolyl urea derivatives and their utilization as antiviral agents” (Bayer Aktiengesellschaft, priority 1999, dated 2002)

SMILES	melting point
CCOc1ccc(NC(=O)N(C)c2nc(Cl)c(S(=O)(=O)N(C)C)s2)cc1	215 °C
CCCN(C(=O)Nc1ccc(N2CCOCC2)cc1)c1nc(C)c(S(=O)(=O)NC)s1	179 °C
CCCOc1ccc(NC(=O)N(C)c2nc(C)c(S(=O)(=O)NC)s2)cc1	161 °C
CCOc1ccc(NC(=O)N(C)c2nc(C)c(S(=O)(=O)NCc3cccnc3)s2)cc1	158 °C
CCOc1ccc(NC(=O)N(Cc2nc3ccccc3[nH]2)c2nc(C)c(S(=O)(=O)NC)s2)cc1	197 °C
CCOc1ccc(NC(=O)N(CCn2ccnn2)c2nc(C)c(S(=O)(=O)NC)s2)cc1	188 °C
CCc1nc(N(C)C(=O)Nc2ccc(N3CCCC3)cc2)sc1S(=O)(=O)NC	217 °C
Cc1nc(N(C)C(=O)Nc2ccc(OCC(O)CO)cc2)sc1S(=O)(=O)N(C)C (centres unmarked)	156 °C
CCOc1ccc(NC(=O)N(Cc2ccncc2)c2nc(C)c(S(=O)(=O)NC)s2)cc1	198 °C
CCc1nc(N(CCCO)C(=O)Nc2ccc(N3CCCC3)cc2)sc1S(=O)(=O)NC	161 °C
CCOc1ccc(NC(=O)N(CCCCO)c2nc(C)c(S(=O)(=O)NC)s2)cc1	164 °C
C=CCN(C(=O)Nc1ccc(OCC)cc1)c1nc(C)c(S(=O)(=O)NC)s1	162 °C
CN(C(=O)Nc1ccc(N2CCOCC2)c(Cl)c1)c1nc(Cl)c(S(=O)(=O)N(C)C)s1	203 °C
CCOc1ccc(NC(=O)N(CCCN)c2nc(C)c(S(=O)(=O)NC)s2)cc1.Cl	150 °C
CCCN(C(=O)Nc1ccc(-c2ccccc2)cc1)c1nc(C)c(S(=O)(=O)NCC(F)(F)F)s1	146 °C
Cc1nc(N(C)C(=O)Nc2ccc(-c3cccn3C(=O)OC(C)(C)C)cc2)sc1S(=O)(=O)N(C)C	84 °C
Cc1nc(N(C)C(=O)Nc2ccc(OCC(C)(C)C)cc2)sc1S(=O)(=O)N(C)C	158 °C
Cc1nc(N(C)C(=O)Nc2ccc(-c3ccccc3)cc2)sc1S(=O)(=O)N(C)C	228 °C
CCOc1ccc(NC(=O)N(CCC2CCCN2C)c2nc(C)c(S(=O)(=O)NC)s2)cc1 (centres unmarked)	141 °C
CCCN(C(=O)Nc1ccc(-c2ccccc2)cc1)c1nc(C)c(S(=O)(=O)NCC)s1	160 °C
CCOc1ccc(NC(=O)N(CCCO)c2nc(C)c(S(=O)(=O)NC)s2)cc1	161 °C
CCOc1ccc(NC(=O)N(CCCCNC(=O)OC(C)(C)C)c2nc(C)c(S(=O)(=O)NC)s2)cc1	148 °C
CCOc1ccc(NC(=O)N(CCN(C)C)c2nc(CC)c(S(=O)(=O)NC)s2)cc1	208 °C

SMILES	melting point
CCOc1ccc(NC(=O)N(CCOC)c2nc(C)c(S(N)(=O)=O)s2)cc1	171 °C
CCOc1ccc(N(C)C(=O)Nc2nc(C)c(S(=O)(=O)N(C)C)s2)cc1	118 °C
CNS(=O)(=O)c1sc(N(C)C(=O)Nc2ccc(N3CCC(NC(=O)OC(C)(C)C)C3)cc2)nc1C (centres unmarked)	188 to 189 °C (dec.)
CCOC(=O)N1CC2CCN(c3ccc(NC(=O)N(C)c4nc(S(=O)(=O)NC5CC5)c(C)s4)cc3)C2C1 (centres unmarked)	140 °C
CSc1ccc(NC(=O)N(C)c2nc(Cl)c(S(=O)(=O)N(C)C)s2)cc1	194 °C
CNS(=O)(=O)c1sc(N(C)C(=O)Nc2ccc(C3=NOCCO3)cc2)nc1C	192 to 194 °C
Cc1nc(N(C)C(=O)Nc2ccc(C3=NOCCO3)cc2)sc1S(=O)(=O)NC1CC1	> 225 °C
Cc1nc(N(C)C(=O)Nc2ccc(N3CC=CC3)cc2)sc1S(=O)(=O)NC1CC1	186 to 187 °C
CCOC(=O)N1CC2CCC(c3ccc(NC(=O)N(C)c4nc(C)c(S(=O)(=O)N(C)C)s4)cc3)C2C1 (centres unmarked)	136 to 137 °C
Cc1nc(N(C)C(=O)Nc2ccc(N3CCCCC3)cc2)sc1S(=O)(=O)N(C)C	185 °C
COC(=O)c1ccc(NC(=O)N(C)C2=NC(Cl)C(S(=O)(=O)N(C)C)S2)cc1 (centres unmarked)	220 °C
CNS(=O)(=O)c1sc(N(C)C(=O)Nc2ccc(-c3cccc(OC)c3)cc2)nc1C	178 °C
CNS(=O)(=O)c1sc(N(C)C(=O)Nc2ccc(-c3ccccc3C)cc2C)nc1C	148 °C
CNS(=O)(=O)c1sc(NC(=O)Nc2ccc(-c3ccccc3)cc2)nc1C	199 °C
CCc1nc(N(C)C(=O)Nc2ccc(-c3ccccc3)cc2)sc1S(=O)(=O)NC	204 °C
CCc1nc(N(CCCN(CC)CC)C(=O)Nc2ccc(-c3ccccc3)cc2)sc1S(N)(=O)=O	177 °C
CCCN(C(=O)Nc1ccc(-c2ccccc2)cc1)c1nc(C)c(S(=O)(=O)NCCO)s1	156 °C
CCCNS(=O)(=O)c1sc(N(CCC)C(=O)Nc2ccc(-c3ccccc3)cc2)nc1C	137 °C
CNS(=O)(=O)c1sc(N(CC2CCCO2)C(=O)Nc2ccc(-c3ccccc3)cc2)nc1C (centres unmarked)	178 °C
COCCNS(=O)(=O)c1sc(N(C)C(=O)Nc2ccc(-c3ccccc3)cc2)nc1C	157 °C
COCCN(C(=O)Nc1ccc(-c2ccccc2)cc1)c1nc(C)c(S(=O)(=O)NC2CC2)s1	160 °C
CCCN(C(=O)Nc1ccc(-c2ccccc2)cc1)c1nc(C)c(S(=O)(=O)NC)s1	156 °C
CNS(=O)(=O)c1sc(N(CCCN(C)c2ccccc2)C(=O)Nc2ccc(-c3ccccc3)cc2)nc1C	148 °C

SMILES	melting point
CNS(=O)(=O)c1sc(N(CCOC)C(=O)Nc2ccc(N3CCCC3)cc2)nc1C	184 °C
Cc1nc(N(C)C(=O)Nc2ccc(-c3ccccc3)cc2)sc1S(N)(=O)=O	221 °C
Cc1nc(N(C)C(=O)Nc2ccc(N3CCOCC3)cc2)sc1S(N)(=O)=O	225 °C
Cc1nc(N(CCN(C)C)C(=O)Nc2ccc(N3CCOCC3)cc2)sc1S(N)(=O)=O	123 °C
CNS(=O)(=O)c1sc(N(CCN(C)C)C(=O)Nc2ccc(-c3ccccc3)cc2)nc1C	154 °C
Cc1nc(N(Cc2ccncc2)C(=O)Nc2ccc(N3CCOCC3)cc2)sc1S(N)(=O)=O	186 °C
Cc1nc(N(CCN(C)C)C(=O)Nc2ccc(-c3ccccc3)cc2)sc1S(N)(=O)=O	138 °C
CCOc1ccc(NC(=O)N(CCN(C)C)c2nc(C)c(S(=O)(=O)NC3CC3)s2)cc1	168 °C
CNS(=O)(=O)c1sc(N(CCN(C)C)C(=O)Nc2ccc(N3CCCC3)cc2)nc1C	188 °C
CCCN(C(=O)Nc1ccc(OCC)cc1)c1nc(Cl)c(S(=O)(=O)N(C)C)s1	132 °C
CCOc1ccc(NC(=O)N(C)c2nc(Cl)c(S(=O)(=O)NC3CC3)s2)cc1	183 °C
CCN(C(=O)Nc1ccc(N2CCOCC2)cc1)c1nc(Cl)c(S(=O)(=O)N(C)C)s1	190 °C
CN(C(=O)Nc1ccc(N2CCOCC2)cc1)c1nc(Cl)c(S(=O)(=O)NC2CC2)s1	241 °C
CN(C(=O)Nc1ccc(OC(F)(F)C(F)F)cc1)c1nc(Cl)c(S(=O)(=O)N(C)C)s1	168 °C
CCOc1ccc(NC(=O)N(C)c2nc(Cl)c(S(=O)(=O)NCc3ccccc3)s2)cc1	170 °C
CCOc1ccc(NC(=O)N(C)c2nc(Cl)c(S(=O)(=O)NCN3CCCCC3)s2)cc1	183 °C
Cc1nc(N(C)C(=O)Nc2ccc(N3CCOCC3)cc2)sc1S(=O)(=O)N1CCCCC1	206 °C
Cc1nc(N(C)C(=O)Nc2ccc(N3CCOCC3)cc2)sc1S(=O)(=O)N(C)C1CC1	198 °C
Cc1nc(N(C)C(=O)Nc2ccc(N3CCOCC3)cc2)sc1S(=O)(=O)NCc1ccccc1	216 °C
CCOc1ccc(NC(=O)N(C)c2nc(CC)c(S(=O)(=O)N(C)C)s2)cc1	176 °C
Cc1nc(N(C)C(=O)Nc2ccc(N3CCOCC3)cc2)sc1S(=O)(=O)NC1CC1	235 °C
CCOc1ccc(NC(=O)N(CCN2CCOCC2)c2nc(C)c(S(=O)(=O)N(C)C)s2)cc1	204 °C
CCOc1ccc(NC(=O)N(CCN(C)C)c2nc(C)c(S(=O)(=O)N(C)C)s2)cc1	163 °C

SMILES	melting point
Cc1nc(N(C)C(=O)Nc2ccc(N3CCOCC3)cc2)sc1S(=O)(=O)N(C)Cc1ccccn1	148 °C
CCOc1ccc(NC(=O)N(Cc2ccccc2)c2nc(C)c(S(=O)(=O)N(C)C)s2)cc1	187 °C
CCOc1ccc(NC(=O)N(Cc2ccncc2)c2nc(C)c(S(=O)(=O)N(C)C)s2)cc1	188 °C
CCOc1ccc(NC(=O)N(CC(C)C)c2nc(C)c(S(=O)(=O)N(C)C)s2)cc1	173 °C
CCOc1ccc(NC(=O)N(CCNC(C)=O)c2nc(C)c(S(=O)(=O)N(C)C)s2)cc1	184 °C
CCOc1ccc(NC(=O)N(CCOC)c2nc(C)c(S(=O)(=O)N(C)C)s2)cc1	162 °C
CCOc1ccc(NC(=O)N(C)c2nc(C)c(S(=O)(=O)N(C)CC)s2)cc1	163 °C
CCOc1ccc(NC(=O)N(C)c2nc(C)c(S(=O)(=O)NCC3CCCO3)s2)cc1 (centres unmarked)	168 °C
CCOc1ccc(NC(=O)N(CCO)c2nc(C)c(S(=O)(=O)N(C)C)s2)cc1	160 °C
CCOc1ccc(NC(=O)N(CCCO)c2nc(C)c(S(=O)(=O)N(C)C)s2)cc1	147 °C
CCOc1ccc(NC(=O)N(CCNC(=O)OC(C)(C)C)c2nc(C)c(S(=O)(=O)N(C)C)s2)cc1	164 °C
CCOc1ccc(NC(=O)N(CCCNC(=O)OC(C)(C)C)c2nc(C)c(S(=O)(=O)N(C)C)s2)cc1	130 °C
CCOc1ccc(NC(=O)N(Cc2ccncc2)c2nc(C)c(S(=O)(=O)NC3CC3)s2)cc1	200 °C
CCOc1ccc(NC(=O)N(CCOC)c2nc(C)c(S(=O)(=O)NC3CC3)s2)cc1	164 °C
CCOc1ccc(NC(=O)Nc2nc(C)c(S(=O)(=O)N3CCCC3)s2)cc1	198 °C
CCOc1ccc(NC(=O)N(C)c2nc(C)c(S(=O)(=O)NCCn3ccnn3)s2)cc1	154 °C
CCOc1ccc(NC(=O)N(C)c2nc(C)c(S(=O)(=O)NC(C)C)s2)cc1	192 °C
CCOc1ccc(NC(=O)N(c2nc(C)c(S(=O)(=O)N(C)C)s2)C(C)CC)cc1 (centres unmarked)	130 °C
CCc1nc(N(CCCO)C(=O)Nc2ccc(N3CCOCC3)cc2)sc1S(=O)(=O)NC	169 °C
CNS(=O)(=O)c1sc(N(CCCO)C(=O)Nc2ccc(N3CCOCC3)cc2)nc1C	181 °C
